Laboratory results reported in paper PMC9908026 (Science Advances, 2023).

Target: T1, EcGlyRS ((αβ)2 orphan GlyRS, full-length; EcGlyRS_FL) (Escherichia coli, UniProt P00960)
T1 construct: gene glyQ; full-length α and β subunits co-expressed in E. coli BL21(DE3); C-terminal His6 tag on β, no cleavage told; (αβ)2 heterotetramer; with Glycine--tRNA ligase beta subunit
T1 sequence (P00960 1-303): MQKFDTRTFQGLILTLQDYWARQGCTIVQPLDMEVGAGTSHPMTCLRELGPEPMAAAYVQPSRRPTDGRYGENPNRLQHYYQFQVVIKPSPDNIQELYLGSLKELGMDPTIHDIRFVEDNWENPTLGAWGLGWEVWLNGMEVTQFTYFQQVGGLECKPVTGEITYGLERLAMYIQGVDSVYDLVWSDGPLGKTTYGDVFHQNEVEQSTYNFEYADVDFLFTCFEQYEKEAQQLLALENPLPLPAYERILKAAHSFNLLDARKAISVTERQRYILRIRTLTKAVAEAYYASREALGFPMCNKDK
T1 sequence (P00961 2-689 partner): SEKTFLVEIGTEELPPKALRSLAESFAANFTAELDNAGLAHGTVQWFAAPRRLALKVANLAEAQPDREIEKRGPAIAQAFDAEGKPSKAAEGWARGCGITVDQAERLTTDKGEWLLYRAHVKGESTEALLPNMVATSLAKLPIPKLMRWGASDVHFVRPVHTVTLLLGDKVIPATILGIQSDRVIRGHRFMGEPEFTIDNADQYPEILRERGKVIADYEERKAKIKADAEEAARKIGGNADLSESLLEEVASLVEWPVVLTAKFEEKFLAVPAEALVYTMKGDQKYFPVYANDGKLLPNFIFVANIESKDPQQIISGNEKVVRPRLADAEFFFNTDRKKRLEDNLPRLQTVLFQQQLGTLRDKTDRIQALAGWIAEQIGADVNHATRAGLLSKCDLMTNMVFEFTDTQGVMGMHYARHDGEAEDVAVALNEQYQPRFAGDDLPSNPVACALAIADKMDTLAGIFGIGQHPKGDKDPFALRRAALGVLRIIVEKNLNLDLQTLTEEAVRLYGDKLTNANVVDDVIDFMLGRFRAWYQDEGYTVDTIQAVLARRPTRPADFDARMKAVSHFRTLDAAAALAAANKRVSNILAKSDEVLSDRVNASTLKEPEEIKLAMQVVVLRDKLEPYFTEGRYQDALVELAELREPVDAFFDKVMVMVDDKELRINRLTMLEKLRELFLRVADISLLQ
Assay: ATP consumption assay (Kinase-Glo luminescence)
Assay type: biochemical
Conditions: 4 μM ATP, 500 μM glycine, tRNA-Gly(GCC) 0.25 mg/ml, 40 mM MgCl2, pH 7.5, room temperature; 50 nM enzyme

## Nc1ncnc2c1ncn2[C@@H]1O[C@H](COP(=O)(O)OP(=O)(O)OP(=O)(O)O)[C@@H](O)[C@H]1O [ATP]
  ATP consumption assay (Kinase-Glo luminescence): An ATP consumption assay was used to evaluate the aminoacylation activity of EcGlyRS on tRNA^Gly
